Molecules are shown by their SMILES.

A word on the IC50: it is the concentration at which inhibition is half-maximal. High values mean a need for much substance, low ones inhibition by little substance.

One assay concerns OE19. The assay is described as follows: cells. The class given is functional, cell-based. The note with it: Homo sapiens.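 Note: growth inhibition of OE19 cells, measured through a cell viability read-out.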
Description: SANGER: Inhibition of human OE19 cell growth in a cell viability assay.
Compound `CC1(C)CCC(c2ccc(Cl)cc2)=C(CN2CCN(c3ccc(C(=O)NS(=O)(=O)c4ccc(N[C@H](CCN5CCOCC5)CSc5ccccc5)c(S(=O)(=O)C(F)(F)F)c4)cc3)CC2)C1` [NAVITOCLAX] gave an IC50 greater than 2000 nM.

For another assay, the system named is PANC-03-27. Description: cells. The class given is functional, cell-based. The note with it: Homo sapiens.
Description: SANGER: Inhibition of human PANC-03-27 cell growth in a cell viability assay.
`CC1(C)CCC(c2ccc(Cl)cc2)=C(CN2CCN(c3ccc(C(=O)NS(=O)(=O)c4ccc(N[C@H](CCN5CCOCC5)CSc5ccccc5)c(S(=O)(=O)C(F)(F)F)c4)cc3)CC2)C1` [NAVITOCLAX] showed an IC50 greater than 2000 nM.

Another assay has as its system RPMI-7951. The assay is described as follows: cells. The class given is functional, cell-based. The note with it: Homo sapiens.
Description: SANGER: Inhibition of human RPMI-7951 cell growth in a cell viability assay.
`CC1(C)CCC(c2ccc(Cl)cc2)=C(CN2CCN(c3ccc(C(=O)NS(=O)(=O)c4ccc(N[C@H](CCN5CCOCC5)CSc5ccccc5)c(S(=O)(=O)C(F)(F)F)c4)cc3)CC2)C1` [NAVITOCLAX] displayed a 50% inhibitory concentration (IC50) greater than 2000 nM.

Another assay relates to SAS. The assay is described as follows: cells. The class given is functional, cell-based. The note with it: Homo sapiens.
Description: SANGER: Inhibition of human SAS cell growth in a cell viability assay.
Compound `CC1(C)CCC(c2ccc(Cl)cc2)=C(CN2CCN(c3ccc(C(=O)NS(=O)(=O)c4ccc(N[C@H](CCN5CCOCC5)CSc5ccccc5)c(S(=O)(=O)C(F)(F)F)c4)cc3)CC2)C1` [NAVITOCLAX] registered a half-maximal inhibitory concentration (IC50) greater than 2000 nM.

The next assay deals with SJRH30. Description: cells. The assay is classed as functional, cell-based. The note with it: Homo sapiens.
Description: SANGER: Inhibition of human SJRH30 cell growth in a cell viability assay.
The compound `CC1(C)CCC(c2ccc(Cl)cc2)=C(CN2CCN(c3ccc(C(=O)NS(=O)(=O)c4ccc(N[C@H](CCN5CCOCC5)CSc5ccccc5)c(S(=O)(=O)C(F)(F)F)c4)cc3)CC2)C1` [NAVITOCLAX] returned a half-inhibitory concentration (IC50) greater than 2000 nM.

For a further assay, the system named is SK-LU-1. Description: cells. The class given is functional, cell-based. Particulars: Homo sapiens.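 Note: cell viability assay measuring growth inhibition of human SK-LU-1 cells.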
Description: SANGER: Inhibition of human SK-LU-1 cell growth in a cell viability assay.
Consider `CC1(C)CCC(c2ccc(Cl)cc2)=C(CN2CCN(c3ccc(C(=O)NS(=O)(=O)c4ccc(N[C@H](CCN5CCOCC5)CSc5ccccc5)c(S(=O)(=O)C(F)(F)F)c4)cc3)CC2)C1` [NAVITOCLAX], for which the IC50 is greater than 2000 nM.

For the next assay, the system named is SKG-IIIa. The assay is described as follows: cells. The assay is classed as functional, cell-based. Particulars: Homo sapiens.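 Note: cell growth inhibition, read out with a cell viability assay.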
Description: SANGER: Inhibition of human SKG-IIIa cell growth in a cell viability assay.
In turn, `CC1(C)CCC(c2ccc(Cl)cc2)=C(CN2CCN(c3ccc(C(=O)NS(=O)(=O)c4ccc(N[C@H](CCN5CCOCC5)CSc5ccccc5)c(S(=O)(=O)C(F)(F)F)c4)cc3)CC2)C1` [NAVITOCLAX] returned a half-maximal inhibitory concentration (IC50) greater than 2000 nM.

The next assay has as its system SN12C. Description: cells. The class given is functional, cell-based. Particulars: Homo sapiens.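 Note: growth inhibition of human SN12C cells, measured by a cell viability assay.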
Description: SANGER: Inhibition of human SN12C cell growth in a cell viability assay.
Compound `CC1(C)CCC(c2ccc(Cl)cc2)=C(CN2CCN(c3ccc(C(=O)NS(=O)(=O)c4ccc(N[C@H](CCN5CCOCC5)CSc5ccccc5)c(S(=O)(=O)C(F)(F)F)c4)cc3)CC2)C1` [NAVITOCLAX] gave an IC50 greater than 2000 nM.

In a further assay the test system is SW756. Description: cells. The class given is functional, cell-based. Particulars: Homo sapiens.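 Note: growth inhibition of human SW756 cells, read out with a cell viability assay.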
Description: SANGER: Inhibition of human SW756 cell growth in a cell viability assay.
For `CC1(C)CCC(c2ccc(Cl)cc2)=C(CN2CCN(c3ccc(C(=O)NS(=O)(=O)c4ccc(N[C@H](CCN5CCOCC5)CSc5ccccc5)c(S(=O)(=O)C(F)(F)F)c4)cc3)CC2)C1` [NAVITOCLAX], the IC50 is greater than 2000 nM.

The test system of another assay is SiHa. Description: cells. The class given is functional, cell-based. Particulars: Homo sapiens.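 Note: Viability-based readout of growth inhibition in SiHa cells.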
Description: SANGER: Inhibition of human SiHa cell growth in a cell viability assay.
For `CC1(C)CCC(c2ccc(Cl)cc2)=C(CN2CCN(c3ccc(C(=O)NS(=O)(=O)c4ccc(N[C@H](CCN5CCOCC5)CSc5ccccc5)c(S(=O)(=O)C(F)(F)F)c4)cc3)CC2)C1` [NAVITOCLAX], the half-inhibitory concentration (IC50) was greater than 2000 nM.

The next assay deals with 8505C. The assay is described as follows: cells. The class given is functional, cell-based. Particulars: Homo sapiens.
Description: SANGER: Inhibition of human 8505C cell growth in a cell viability assay.
The compound `CC1(C)CCC(c2ccc(Cl)cc2)=C(CN2CCN(c3ccc(C(=O)NS(=O)(=O)c4ccc(N[C@H](CCN5CCOCC5)CSc5ccccc5)c(S(=O)(=O)C(F)(F)F)c4)cc3)CC2)C1` [NAVITOCLAX] returned a half-inhibitory concentration (IC50) greater than 2000 nM.

The next assay deals with A 172. The assay is described as follows: cells. The assay is classed as functional, cell-based. The note with it: Homo sapiens.
Description: SANGER: Inhibition of human A172 cell growth in a cell viability assay.
`CC1(C)CCC(c2ccc(Cl)cc2)=C(CN2CCN(c3ccc(C(=O)NS(=O)(=O)c4ccc(N[C@H](CCN5CCOCC5)CSc5ccccc5)c(S(=O)(=O)C(F)(F)F)c4)cc3)CC2)C1` [NAVITOCLAX] had an IC50 greater than 2000 nM.

The test system of the next assay is AGS. The assay is described as follows: cells. The class given is functional, cell-based. Particulars: Homo sapiens.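 Note: growth inhibition of AGS cells, determined with a cell viability assay.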
Description: SANGER: Inhibition of human AGS cell growth in a cell viability assay.
As for `CC1(C)CCC(c2ccc(Cl)cc2)=C(CN2CCN(c3ccc(C(=O)NS(=O)(=O)c4ccc(N[C@H](CCN5CCOCC5)CSc5ccccc5)c(S(=O)(=O)C(F)(F)F)c4)cc3)CC2)C1` [NAVITOCLAX], the half-inhibitory concentration (IC50) was greater than 2000 nM.

The next assay deals with AN3-CA. The assay is described as follows: cells. The class given is functional, cell-based. The note with it: Homo sapiens.
Description: SANGER: Inhibition of human AN3-CA cell growth in a cell viability assay.
In turn, `CC1(C)CCC(c2ccc(Cl)cc2)=C(CN2CCN(c3ccc(C(=O)NS(=O)(=O)c4ccc(N[C@H](CCN5CCOCC5)CSc5ccccc5)c(S(=O)(=O)C(F)(F)F)c4)cc3)CC2)C1` [NAVITOCLAX] yielded an IC50 greater than 2000 nM.

The next assay relates to BT-20. Description: cells. The class given is functional, cell-based. The note with it: Homo sapiens.
Description: SANGER: Inhibition of human BT-20 cell growth in a cell viability assay.
`CC1(C)CCC(c2ccc(Cl)cc2)=C(CN2CCN(c3ccc(C(=O)NS(=O)(=O)c4ccc(N[C@H](CCN5CCOCC5)CSc5ccccc5)c(S(=O)(=O)C(F)(F)F)c4)cc3)CC2)C1` [NAVITOCLAX] gave an IC50 greater than 2000 nM.

The next assay relates to CAL-12T. Description: cells. The assay is classed as functional, cell-based. Particulars: Homo sapiens.
Description: SANGER: Inhibition of human CAL-12T cell growth in a cell viability assay.
In turn, `CC1(C)CCC(c2ccc(Cl)cc2)=C(CN2CCN(c3ccc(C(=O)NS(=O)(=O)c4ccc(N[C@H](CCN5CCOCC5)CSc5ccccc5)c(S(=O)(=O)C(F)(F)F)c4)cc3)CC2)C1` [NAVITOCLAX] yielded an IC50 greater than 2000 nM.

The next assay concerns U-118-MG. Description: cells. The class given is functional, cell-based. Particulars: Homo sapiens.
Description: SANGER: Inhibition of human U-118-MG cell growth in a cell viability assay.
`CC1(C)CCC(c2ccc(Cl)cc2)=C(CN2CCN(c3ccc(C(=O)NS(=O)(=O)c4ccc(N[C@H](CCN5CCOCC5)CSc5ccccc5)c(S(=O)(=O)C(F)(F)F)c4)cc3)CC2)C1` [NAVITOCLAX] gave an IC50 greater than 2000 nM.

The next assay has as its system YAPC. Description: cells. The class given is functional, cell-based. Particulars: Homo sapiens.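 Note: growth inhibition of YAPC cells, measured with a cell viability assay.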
Description: SANGER: Inhibition of human YAPC cell growth in a cell viability assay.
On to `CC1(C)CCC(c2ccc(Cl)cc2)=C(CN2CCN(c3ccc(C(=O)NS(=O)(=O)c4ccc(N[C@H](CCN5CCOCC5)CSc5ccccc5)c(S(=O)(=O)C(F)(F)F)c4)cc3)CC2)C1` [NAVITOCLAX], for which the 50% inhibitory concentration (IC50) was greater than 2000 nM.

A further assay deals with COLO-678. Description: cells. The assay is classed as functional, cell-based. The note with it: Homo sapiens.
Description: SANGER: Inhibition of human COLO-678 cell growth in a cell viability assay.
Consider `CC1(C)CCC(c2ccc(Cl)cc2)=C(CN2CCN(c3ccc(C(=O)NS(=O)(=O)c4ccc(N[C@H](CCN5CCOCC5)CSc5ccccc5)c(S(=O)(=O)C(F)(F)F)c4)cc3)CC2)C1` [NAVITOCLAX], for which the concentration for half-maximal inhibition (IC50) is greater than 2000 nM.

A further assay concerns COLO-679. Description: cells. The class given is functional, cell-based. The note with it: Homo sapiens.
Description: SANGER: Inhibition of human COLO-679 cell growth in a cell viability assay.
`CC1(C)CCC(c2ccc(Cl)cc2)=C(CN2CCN(c3ccc(C(=O)NS(=O)(=O)c4ccc(N[C@H](CCN5CCOCC5)CSc5ccccc5)c(S(=O)(=O)C(F)(F)F)c4)cc3)CC2)C1` [NAVITOCLAX] displayed a concentration for half-maximal inhibition (IC50) greater than 2000 nM.

In a further assay the test system is COLO-680N. The assay is described as follows: cells. Particulars: Homo sapiens. The class given is functional, cell-based.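 Note: cell viability assay used to measure inhibition of COLO-680N cell growth.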
Description: SANGER: Inhibition of human COLO-680N cell growth in a cell viability assay.
`CC1(C)CCC(c2ccc(Cl)cc2)=C(CN2CCN(c3ccc(C(=O)NS(=O)(=O)c4ccc(N[C@H](CCN5CCOCC5)CSc5ccccc5)c(S(=O)(=O)C(F)(F)F)c4)cc3)CC2)C1` [NAVITOCLAX]: the IC50 was greater than 2000 nM.

These data come from ChEMBL document CHEMBL1201861, “Genomics of Drug Sensitity in Cancer screening data, Wellcome Trust Sanger Institute”.
